This is an account of results in PubChem BioAssay (NCI).

Test systems include ACHN renal; NCI-H522 lung; BT-549 breast; OVCAR-8 ovarian; SNB-19 CNS; U251 CNS; SNB-75 CNS; RPMI-8226 leukemia; UO-31 renal; MDA-MB-231 breast.
Holding throughout (test): DTP human tumour cell line panel, 48 h

In general, GI50 refers to the concentration giving 50% growth inhibition. For orientation: TGI means the concentration giving total growth inhibition. A lower TGI goes with more potent growth arrest.

Several values for one entry are separate records, joined by “and”; a condition that tells them apart may be missing. Identical values can stand only once.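 Grown in 96-well plates, cells were treated for 48 hours with each compound at five concentrations. Insufficient inhibition: endpoint recorded as highest concentration tested. At the GI50, growth is halved. Definition used: TGI = concentration required for complete inhibition of growth.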

Take `COc1ccc(-n2c(-c3ccc(NC(=O)CCCl)cc3)nnc2-c2cc(OC)c(OC)c(OC)c2)cc1`: the GI50 in the assay on ACHN renal is 2.21 µM; with NCI-H522 lung it was 4.14 µM; in the assay with BT-549 breast, 3.14 µM; in the assay on OVCAR-8 ovarian, 7.87 µM; in the assay with SNB-19 CNS, 4.33 µM; with U251 CNS, 3.69 µM. Also, the GI50 in the assay with SNB-75 CNS is 3.46 µM; with RPMI-8226 leukemia, 2.85 µM; in the assay with UO-31 renal it was 1.94 µM; in the assay with MDA-MB-231 breast, 3.56 µM. The TGI in the assay with ACHN renal was 8.4 µM; with NCI-H522 lung, more than 14.3 µM; with BT-549 breast, 13.8 µM; in the assay with OVCAR-8 ovarian it was more than 14.3 µM; in the assay on SNB-19 CNS it was more than 14.3 µM; in the assay on U251 CNS, 13.5 µM. Besides, the TGI was more than 14.3 µM in the assay on SNB-75 CNS, 8.49 µM in the assay with RPMI-8226 leukemia, 4.37 µM in the assay on UO-31 renal and more than 14.3 µM in the assay with MDA-MB-231 breast.

For the molecule `O=C1NC(=O)[C@@H](c2cn3c4c(cccc24)CCC3)[C@@H]1c1c[nH]c2ccccc12`, the GI50 in the assay with ACHN renal is 0.661 µM and 0.829 µM; in the assay with NCI-H522 lung it was 0.201 µM and 0.365 µM; in the assay with BT-549 breast, 0.522 µM and 1.1 µM; in the assay on OVCAR-8 ovarian, 0.492 µM and 0.561 µM; in the assay on SNB-19 CNS, 0.466 µM and 0.601 µM; with U251 CNS, 0.391 µM and 0.451 µM. The GI50 is 0.348 µM and 0.198 µM in the assay on SNB-75 CNS; 0.379 µM and 2.93 µM in the assay with RPMI-8226 leukemia; 0.552 µM and 0.519 µM in the assay on UO-31 renal; 0.632 µM and 1.19 µM in the assay with MDA-MB-231 breast. The TGI with ACHN renal was > 10 µM and 32.9 µM; with BT-549 breast it was > 10 µM and 17.7 µM; in the assay with OVCAR-8 ovarian, > 10 µM and 14.3 µM; with SNB-19 CNS, > 10 µM and 22.6 µM; in the assay with U251 CNS, > 10 µM and 12.9 µM; in the assay with RPMI-8226 leukemia it was more than 93.5 µM. Further, the TGI was > 10 µM and 27.1 µM in the assay with UO-31 renal; 8.12 µM and 9.86 µM with MDA-MB-231 breast.

In the case of `Cc1ccc2c(/C=C/C(=O)c3cc(CN4CCOCC4)c(O)c4nc(C)ccc34)cc(CN3CCOCC3)c(O)c2n1`, the GI50 in the assay on ACHN renal was 0.535 µM; in the assay with NCI-H522 lung, 0.332 µM; with BT-549 breast, 1.22 µM; in the assay on OVCAR-8 ovarian, 0.588 µM; with SNB-19 CNS, 0.603 µM; in the assay with U251 CNS, 0.412 µM. For the same molecule, the GI50 with SNB-75 CNS was 0.938 µM; in the assay on RPMI-8226 leukemia, 0.489 µM; with UO-31 renal, 0.371 µM; in the assay on MDA-MB-231 breast, 1.44 µM. For the same molecule, the TGI in the assay on ACHN renal was 2.06 µM; in the assay with NCI-H522 lung it was 2 µM; in the assay with BT-549 breast, 4.7 µM; in the assay with OVCAR-8 ovarian, more than 100 µM; in the assay on SNB-19 CNS it was 17.6 µM; with U251 CNS, 2.58 µM. Moreover, the TGI in the assay with SNB-75 CNS was 16.6 µM; in the assay on RPMI-8226 leukemia it was 3.86 µM; with UO-31 renal it was 1.6 µM; in the assay on MDA-MB-231 breast, 5.2 µM.

In the case of `Cc1c(C(=O)CCl)c(=O)n(-c2ccccc2)n1C`, the GI50 is 4.54 µM in the assay with ACHN renal; 1.46 µM in the assay with NCI-H522 lung; 2.46 µM in the assay with BT-549 breast; 3.85 µM with OVCAR-8 ovarian; 17.1 µM in the assay with SNB-19 CNS; 11.4 µM in the assay on U251 CNS. Also, the GI50 in the assay with SNB-75 CNS was 10.9 µM; with RPMI-8226 leukemia it was 1.07 µM; with UO-31 renal, 3.24 µM; in the assay on MDA-MB-231 breast it was 11.2 µM. The TGI in the assay with ACHN renal stood at 16.6 µM; in the assay with NCI-H522 lung, 3.23 µM; with BT-549 breast, 12.8 µM; in the assay on OVCAR-8 ovarian, 28.3 µM; with SNB-19 CNS it was 51.1 µM; in the assay on U251 CNS it was 26.2 µM. Also, the TGI with SNB-75 CNS is 29.5 µM; in the assay with RPMI-8226 leukemia it was 4.62 µM; in the assay with UO-31 renal, 18.5 µM; with MDA-MB-231 breast it was 27.9 µM.

Regarding `O=C(Nc1ncc([N+](=O)[O-])s1)c1cccc([N+](=O)[O-])c1`, the GI50 is 5.41 µM in the assay with ACHN renal; 3.18 µM in the assay on NCI-H522 lung; 2.78 µM with BT-549 breast; 3.2 µM in the assay with OVCAR-8 ovarian; 3.53 µM in the assay with SNB-19 CNS; 3.54 µM with U251 CNS. In addition, the GI50 is 10.7 µM in the assay with SNB-75 CNS, 1.43 µM in the assay with RPMI-8226 leukemia, 2.55 µM with UO-31 renal and 5.12 µM with MDA-MB-231 breast. For the same molecule, the TGI in the assay on ACHN renal is more than 68.1 µM; in the assay with NCI-H522 lung, 65.9 µM; in the assay with BT-549 breast, 11 µM; in the assay with OVCAR-8 ovarian, 20.3 µM; in the assay with SNB-19 CNS, more than 100 µM; in the assay on U251 CNS, more than 100 µM. For the same molecule, the TGI amounted to 88 µM in the assay on SNB-75 CNS, 5.41 µM in the assay on RPMI-8226 leukemia, 9.87 µM with UO-31 renal and 54.5 µM with MDA-MB-231 breast.

With `O=C1c2cccnc2-c2nc(-c3ccccn3)cc3c2c1nc1ccccc13`, the GI50 with ACHN renal was 0.0333 µM; with NCI-H522 lung, 0.141 µM; in the assay with BT-549 breast, 0.249 µM; in the assay on OVCAR-8 ovarian it was 0.15 µM; in the assay on SNB-19 CNS, 1.13 µM; with U251 CNS it was 0.149 µM. The GI50 in the assay with SNB-75 CNS is 1.69 µM; with RPMI-8226 leukemia, 0.253 µM; with UO-31 renal, 0.0539 µM; in the assay with MDA-MB-231 breast, 0.185 µM. The TGI was 0.368 µM in the assay on ACHN renal; 0.32 µM with NCI-H522 lung; 0.672 µM with BT-549 breast; 0.402 µM in the assay on OVCAR-8 ovarian; 2.65 µM in the assay on SNB-19 CNS; 0.306 µM in the assay on U251 CNS. The TGI amounted to 3.81 µM with SNB-75 CNS, 1.03 µM in the assay with RPMI-8226 leukemia, 0.219 µM in the assay with UO-31 renal and 0.5 µM in the assay on MDA-MB-231 breast.

With `CS(=O)(=O)c1ccc(Oc2nccc(-c3c(-c4ccc(F)cc4)ncn3C3CCNCC3)n2)cc1`, the GI50 with ACHN renal, in the assay with NCI-H522 lung, in the assay on BT-549 breast, in the assay on OVCAR-8 ovarian, with SNB-19 CNS and in the assay on U251 CNS was more than 25 µM each time. The GI50 in the assay with SNB-75 CNS, in the assay on RPMI-8226 leukemia, in the assay with UO-31 renal and in the assay with MDA-MB-231 breast was more than 25 µM each time. The TGI with ACHN renal, in the assay with NCI-H522 lung, in the assay with BT-549 breast, in the assay with OVCAR-8 ovarian, in the assay with SNB-19 CNS and in the assay on U251 CNS was more than 25 µM each time. Further, the TGI in the assay with SNB-75 CNS, in the assay on RPMI-8226 leukemia, in the assay with UO-31 renal and in the assay on MDA-MB-231 breast was more than 25 µM in each case.
